We go through 1 substance from patent US20050019765A1, “Methods for treating disorders of the nervous and reproductive systems” (priority 2001, published 2005).

The subject of this test is murine sperm. As to the kind of experiment: chlortetracycline assay for capacitation of murine sperm in vitro. Type of test: cell-based. The source says: ABCA1 generates HDL by transferring cholesterol onto apoprotein-A1 (apoA1) in a process known as cholesterol efflux, which is also an essential component of male fertility. Sperm are made in the testes and released into the epididymis, where they await ejaculation into the female reproductive tract. Although differentiated, epididymal sperm are not capable of fertilization and must first complete their maturation in the female reproductive tract. This maturation process is known as capacitation and is known to require efflux of cholesterol from the sperm plasma membrane. How this occurs at the molecular level is not well understood. The present invention relies in part on the discovery that ABCA1 is highly expressed in the testes (being present in Sertoli and Leydig cells as well as in differentiating spermatids). […] In accordance with the present invention, ABCA1 is also present in epididymal sperm where it can act to transport cholesterol during capacitation. In vivo, follicular HDL is an endogenous cholesterol acceptor for capacitating sperm, and HDL can stimulate capacitation in vitro. In accordance with the present invention, because cholesterol efflux through ABCA1 is dependent upon apoA1 the ability of apoA1 to stimulate capacitation of murine sperm in vitro was tested using a chlortetracycline assay.

Consider “de-lipidated apoA1: apoprotein-A1, the acceptor onto which ABCA1 transfers cholesterol in cholesterol efflux”, for which the “ability to stimulate capacitation of murine sperm” value is given as “capacitates sperm in a dose-dependent manner”.
